Reference: article doi:10.1101/2022.04.02.486822v1 (biorxiv, 2022)

Target: T1, EcGhrA (Escherichia coli, UniProt P75913)
T1 sequence (P75913 1-312): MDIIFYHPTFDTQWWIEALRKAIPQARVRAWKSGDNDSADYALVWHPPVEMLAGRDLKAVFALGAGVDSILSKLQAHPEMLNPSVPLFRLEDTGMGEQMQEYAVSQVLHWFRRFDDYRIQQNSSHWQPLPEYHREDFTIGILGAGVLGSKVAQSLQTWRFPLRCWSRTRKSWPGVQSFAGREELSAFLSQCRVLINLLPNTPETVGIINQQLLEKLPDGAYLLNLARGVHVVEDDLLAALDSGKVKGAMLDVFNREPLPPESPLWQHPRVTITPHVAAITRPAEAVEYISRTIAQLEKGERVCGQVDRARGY
Assay: NADPH oxidation at […] nm, substrate inhibition fit
Type: biochemical
Details: 200 µM NADPH, 50 mM HEPES, pH 7.5, 22 °C

| SMILES | KI |
| --- | --- |
| O=CC(=O)O [compound 6, glyoxylate] | 1.5 ± 1.1 mM |
| O=C(O)CC(=O)C(=O)O [compound 7, oxaloacetate] | 52 ± 15 mM |
